Results from patent US9924716B2, “Molecules having pesticidal utility, and intermediates, compositions, and processes, related thereto” (Dow AgroSciences LLC, priority 2016, dated 2018).

Columns and labels:
Assay type in all cases: in vivo
[1] = system: Beet Armyworm (Spodoptera exigua, LAPHEG) second instar larvae; assay: Bioassay on Beet Armyworm (BAW), 128-well diet tray assay; details: Beet Armyworm, Table ABC Biological Results, read-out: BAW rating
Outline: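 Second-instar larvae, one to five per well, on artificial diet surface-treated with 50 μg/cm^2 compound in acetone-water, dried; eight wells per compound. Held 25 °C, 14:10 light-dark, five to seven days; percent mortality averaged over wells.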

[2] = system: Cabbage Looper (Trichoplusia ni, TRIPNI) second instar larvae; assay: Bioassay on Cabbage Looper (CL), 128-well diet tray assay; details: Cabbage Looper, Table ABC Biological Results, read-out: CL rating
Outline: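 Second instar larvae (1–5 per well) on artificial diet surface-treated with 50 μg/cm² compound in 90:10 acetone-water, eight wells per compound. Held 5–7 days at 25 °C, 14:10 light-dark; percent mortality averaged across wells.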

[3] = system: Green Peach Aphid (Myzus persicae, MYZUPE); assay: Bioassay on Green Peach Aphid (GPA), foliar spray on cabbage seedlings; details: Table ABC Biological Results
Description: Certain molecules disclosed in this document were tested against GPA using procedures described in the following example. In the reporting of the results, the “GPA & YFM Rating Table” was used (See Table Section). Cabbage seedlings grown in 3-inch pots, with 2-3 small (3-5 cm) true leaves, were used as test substrate. The seedlings were infested with 20-50 GPA (wingless adult and nymph stages) one day prior to chemical application. Four pots with individual seedlings were used for each treatment. Test molecules (2 mg) were dissolved in 2 mL of acetone/methanol (1:1) solvent, forming stock solutions of 1000 ppm test molecule. The stock solutions were diluted 5× with 0.025% Tween 20 in water to obtain the solution at 200 ppm test molecule. A hand-held aspirator-type sprayer was used for spraying a solution to both sides of […] leaves until runoff. Reference plants (solvent check) were sprayed with the diluent only containing 20% by volume of acetone/methanol (1:1) solvent. Treated plants were held in a holding room for three days at approximately 25° C. and ambient relative humidity (RH) prior to grading. […] Percent Control was measured by using Abbott's correction formula (W. S. Abbott, “A Method of Computing the Effectiveness of an Insecticide” J. Econ. Entomol. 18 (1925), pp. 265-267) as follows. […]

[4] = system: Yellow Fever Mosquito (Aedes aegypti, AEDSAE) larvae; assay: Bioassay on Yellow Fever Mosquito (YFM), 96-well plate larval assay; details: Table ABC Biological Results
Description: Certain molecules disclosed in this document were tested against YFM using procedures described in the following paragraph. In the reporting of the results, the “GPA & YFM Rating Table” was used (See Table Section).
Master plates containing 400 μg of a molecule dissolved in 100 μL of dimethyl sulfoxide (DMSO) (equivalent to a 4000 ppm solution) are used. A master plate of assembled molecules contains 15 μL per well. To this plate, 135 μL of a 90:10 water:acetone mixture is added to each well. A robot (Biomek® NXP Laboratory Automation Workstation) is programmed to dispense 15 μL aspirations from the master plate into an empty 96-well shallow plate (“daughter” plate). There are 6 reps (“daughter” plates) created per master. The created daughter plates are then immediately infested with YFM larvae.
The day before plates are to be treated, mosquito eggs are placed in Millipore water containing liver powder to begin hatching (4 g. into 400 mL). After the daughter plates are created using the robot, they are infested with 220 μL of the liver powder/larval mosquito mixture (about 1 day-old larvae). After plates are infested with mosquito larvae, a non-evaporative lid is used to cover the plate to reduce drying. Plates are held at room temperature for 3 days prior to grading. After 3 days, each well is observed and scored based on mortality. The results are indicated in the table entitled “Table ABC: Biological Results” (See Table Section).

## C[C@H](NC(=O)CC(F)(F)F)NC(=O)c1ccc(/C(F)=C/C(c2cc(Cl)c(Br)c(Cl)c2)C(F)(F)F)cc1C(F)(F)F (stereo partly drawn) [F31, 4-((Z)-3-(4-Bromo-3,5-dichlorophenyl)-1,4,4,4-tetrafluorobut-1-en-1-yl)-2-(trifluoromethyl)-N—((R)-1-(3,3,3-trifluoropropanamido)ethyl)benzamide]
[1]
  pest or weed control at 50 µg/cm2: 50 to 100%
[2]
  pest or weed control at 50 µg/cm2: 50 to 100%
[3]
  GPA rating: B (More than 0-Less than 80)
[4]
  YFM rating: A (80-100)
